Reference: patent US8889874B2, “Imidazolone-chalcone derivatives as potential anticancer agent and process for the preparation thereof” (Council of Scientific and Industrial Research, priority 2010, dated 2014)
Like-named read-outs stand apart in the source and are kept apart here.

Legend:
Type in all cases: cell-based, human
UACC-257 (melanoma) = assay: NCI anticancer screen, SRB assay, 48 h; settings: Homo sapiens
Outline: (§1)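 Sulforhodamine B protein assay read cell growth after 48 h of continuous compound exposure. Dose-response curves per cell line used at least five 10-fold-diluted concentrations, within a panel of fifty-three human lines from nine tumour types.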

HCT-15 (colon) = assay: NCI anticancer screen, SRB assay, 48 h; settings: Homo sapiens
Outline: as §1

HCC-2998 (colon) = assay: NCI anticancer screen, SRB assay, 48 h; settings: Homo sapiens
Outline: as §1

[1] = tested on: NCI-H226 (non-small cell lung); assay: NCI anticancer screen, SRB assay, 48 h; settings: Homo sapiens
Outline: as §1

OVCAR-4 (ovarian) = assay: NCI anticancer screen, SRB assay, 48 h; settings: Homo sapiens
Outline: as §1

HCT-116 (colon) = assay: NCI anticancer screen, SRB assay, 48 h; settings: Homo sapiens
Outline: as §1

U251 (CNS) = assay: NCI anticancer screen, SRB assay, 48 h; settings: Homo sapiens
Outline: as §1

MDA-MB-435 (melanoma) = assay: NCI anticancer screen, SRB assay, 48 h; settings: Homo sapiens
Outline: as §1

TK-10 (renal) = assay: NCI anticancer screen, SRB assay, 48 h; settings: Homo sapiens
Outline: as §1

TD-47D (breast) = assay: NCI anticancer screen, SRB assay, 48 h; settings: Homo sapiens
Outline: as §1

CAKI-1 (renal) = assay: NCI anticancer screen, SRB assay, 48 h; settings: Homo sapiens
Outline: as §1

SN12C (renal) = assay: NCI anticancer screen, SRB assay, 48 h; settings: Homo sapiens, SN12C
Outline: as §1

NCI/ADR-RES (ovarian) = assay: NCI anticancer screen, SRB assay, 48 h; settings: Homo sapiens, NCI/ADR-RES
Outline: as §1

SK-MEL-5 (melanoma) = assay: NCI anticancer screen, SRB assay, 48 h; settings: Homo sapiens
Outline: as §1

SNB-19 (CNS) = assay: NCI anticancer screen, SRB assay, 48 h; settings: Homo sapiens
Outline: as §1

[2] = tested on: RPMI-8226 (leukemia cell line); assay: NCI anticancer screen, SRB assay, 48 h; settings: Homo sapiens
Outline: as §1

[3] = tested on: A549/ATCC (non-small cell lung); assay: NCI anticancer screen, SRB assay, 48 h; settings: Homo sapiens
Outline: as §1

[4] = tested on: Prostate cancer cell lines; assay: NCI anticancer screen, SRB assay, panel summary
Outline: as §1

CNS cancer cell lines = assay: NCI anticancer screen, SRB assay, panel summary; settings: for GI50: Homo sapiens
Outline: as §1

Breast cancer cell lines = assay: NCI anticancer screen, SRB assay, panel summary; settings: Homo sapiens
Outline: as §1

[5] = tested on: Melanoma cancer cell lines; assay: NCI anticancer screen, SRB assay, panel summary; settings: for GI50: Homo sapiens
Outline: as §1

[6] = tested on: Ovarian cancer cell lines; assay: NCI anticancer screen, SRB assay, panel summary; settings: Homo sapiens
Outline: as §1

[7] = tested on: Leukemia cancer cell lines; assay: NCI anticancer screen, SRB assay, panel summary; settings: Homo sapiens
Outline: as §1

Renal cancer cell lines = assay: NCI anticancer screen, SRB assay, panel summary; settings: Homo sapiens
Outline: as §1

[8] = tested on: Non-small cell lung cancer cell lines; assay: NCI anticancer screen, SRB assay, panel summary; settings: Homo sapiens
Outline: as §1

Colon cancer cell lines = assay: NCI anticancer screen, SRB assay, panel summary; settings: for GI50: Homo sapiens
Outline: as §1

[9] = 48 h exposure, SRB, read-out: GI50
[10] = read-out: pGI50 (-log of molar concentration causing 50% inhibition of net cell growth) (converted)

Which GI50 (UACC-257 (melanoma); [9]) does the source give for `COc1cc(/C=C/C(=O)c2cccc(-n3cc(-c4ccccc4)[nH]c3=O)c2)ccc1O` [3a, 1-3-[(E)-3-(4-hydroxy-3-methoxyphenyl)-2-propenoyl]phenyl-4-phenyl-2,3-dihydro-1H-2-imidazolone] here?
Its GI50 is 6810 nM.

What about the GI50 (UACC-257 (melanoma); [10]) of the same compound?
The GI50 was 6760 nM.

And the GI50 (HCT-15 (colon); [9])?
Its GI50 is 2730 nM.

What about the GI50 (HCT-15 (colon); [10]) of the same compound?
The GI50 was 2750 nM.

What about the GI50 (HCC-2998 (colon); [9]) of the same compound?
Its GI50 is 1510 nM.

And the GI50 (HCC-2998 (colon); [10])?
Its GI50 is 1510 nM.

And the GI50 [1, 9]?
Its GI50 is 2600 nM.

And the GI50 [1, 10]?
The GI50 was 2570 nM.

And the GI50 (OVCAR-4 (ovarian); [9])?
The GI50 was 5190 nM.

What about the GI50 (OVCAR-4 (ovarian); [10]) of the same compound?
The GI50 was 5250 nM.

And the GI50 (HCT-116 (colon); [9])?
Its GI50 is 1400 nM.

And the GI50 (HCT-116 (colon); [10])?
The GI50 was 1410 nM.

What about the GI50 (U251 (CNS); U-251, 48 h exposure, SRB, read-out: GI50) of the same compound?
The GI50 was 2110 nM.

And the GI50 (U251 (CNS); U-251, read-out: pGI50 (-log of molar concentration causing 50% inhibition of net cell growth) (converted))?
The GI50 was 2090 nM.

What about the GI50 (MDA-MB-435 (melanoma); [9]) of the same compound?
The GI50 was 2140 nM.

And the GI50 (MDA-MB-435 (melanoma); [10])?
The GI50 was 2140 nM.

And the GI50 (TK-10 (renal); [9])?
Its GI50 is 5290 nM.

What about the GI50 (TK-10 (renal); [10]) of the same compound?
The GI50 was 5250 nM.

What about the GI50 (TD-47D (breast); [9]) of the same compound?
The GI50 was 2700 nM.

What about the GI50 (TD-47D (breast); [10]) of the same compound?
The GI50 was 2690 nM.

And the GI50 (CAKI-1 (renal); [9])?
Its GI50 is 2190 nM.

And the GI50 (CAKI-1 (renal); [10])?
The GI50 was 2190 nM.

What about the GI50 (SN12C (renal); SN 12C, read-out: pGI50 (-log of molar concentration causing 50% inhibition of net cell growth) (converted)) of the same compound?
Its GI50 is 3310 nM.

And the GI50 (SN12C (renal); [9])?
Its GI50 is 3310 nM.

And the GI50 (NCI/ADR-RES (ovarian); NCl/ADR-RES, 48 h exposure, SRB, read-out: GI50)?
Its GI50 is 2920 nM.

What about the GI50 (NCI/ADR-RES (ovarian); [10]) of the same compound?
The GI50 was 2950 nM.

And the GI50 (SK-MEL-5 (melanoma); [9])?
The GI50 was 1590 nM.

And the GI50 (SK-MEL-5 (melanoma); [10])?
Its GI50 is 1580 nM.

What about the GI50 (SNB-19 (CNS); [9]) of the same compound?
Its GI50 is 2960 nM.

And the GI50 (SNB-19 (CNS); [10])?
The GI50 was 2950 nM.

And the GI50 [2, 9]?
The GI50 was 1670 nM.

What about the GI50 [2, 10] of the same compound?
The GI50 was 1660 nM.

What about the GI50 [3, 9] of the same compound?
Its GI50 is 3850 nM.

And the GI50 [3, 10]?
The GI50 was 3890 nM.

And the GI50 ([4]; Homo sapiens, log of concentration in mol/L causing 50% inhibition of net cell growth, read-out: mean graph midpoint (MG_MID) of Log10 GI50 (converted))?
Its GI50 is 2510 nM.

What about the LC50 ([4]; Homo sapiens, log of concentration leading to 50% net cell death, read-out: mean graph midpoint (MG_MID) of Log10 LC50 (converted)) of the same compound?
The LC50 was ≥ 100000 nM.

What about the “mean graph midpoint (MG_MID) of Log10 TGI” value ([4]; log of concentration resulting in total inhibition of net cell growth) of the same compound?
Its value is 5.13.

And the “mean graph midpoint (MG_MID) of Log10 LC50” value (CNS cancer cell lines; CNS panel, log of concentration leading to 50% net cell death)?
Its value is 4.62.

And the GI50 (CNS cancer cell lines; CNS panel, log of concentration in mol/L causing 50% inhibition of net cell growth, read-out: mean graph midpoint (MG_MID) of Log10 GI50 (converted))?
The GI50 was 2570 nM.

And the GI50 (CNS cancer cell lines; six CNS cancer cell lines, exposure at least 48 hrs, read-out: GI50, range over the panel)?
The GI50 was 1910 to 3900 nM.

What about the GI50 (Breast cancer cell lines; Breast panel, log of concentration in mol/L causing 50% inhibition of net cell growth, read-out: mean graph midpoint (MG_MID) of Log10 GI50 (converted)) of the same compound?
The GI50 was 2820 nM.

And the LC50 (Breast cancer cell lines; Breast panel, log of concentration leading to 50% net cell death, read-out: mean graph midpoint (MG_MID) of Log10 LC50 (converted))?
The LC50 was 53700 nM.

What about the GI50 (Breast cancer cell lines; five breast cancer cell lines, exposure at least 48 hrs, read-out: GI50, range over the panel) of the same compound?
The GI50 was 1550 to 4160 nM.

And the GI50 ([5]; Melanoma panel, log of concentration in mol/L causing 50% inhibition of net cell growth, read-out: mean graph midpoint (MG_MID) of Log10 GI50 (converted))?
Its GI50 is 2570 nM.

And the GI50 ([5]; nine melanoma cancer cell lines, exposure at least 48 hrs, read-out: GI50, range over the panel)?
Its GI50 is 1590 to 6810 nM.

What about the “mean graph midpoint (MG_MID) of Log10 LC50” value ([5]; Melanoma panel, log of concentration leading to 50% net cell death) of the same compound?
Its value is 4.06.

And the GI50 ([6]; Ovarian panel, log of concentration in mol/L causing 50% inhibition of net cell growth, read-out: mean graph midpoint (MG_MID) of Log10 GI50 (converted))?
Its GI50 is 3240 nM.

And the LC50 ([6]; Ovarian panel, log of concentration leading to 50% net cell death, read-out: mean graph midpoint (MG_MID) of Log10 LC50 (converted))?
The LC50 was 11700 nM.

And the GI50 ([6]; six ovarian cancer cell lines, exposure at least 48 hrs, read-out: GI50, range over the panel)?
Its GI50 is 2040 to 5190 nM.

And the GI50 ([7]; Leukemia panel, log of concentration in mol/L causing 50% inhibition of net cell growth, read-out: mean graph midpoint (MG_MID) of Log10 GI50 (converted))?
Its GI50 is 1860 nM.

And the LC50 ([7]; Leukemia panel, log of concentration leading to 50% net cell death, read-out: mean graph midpoint (MG_MID) of Log10 LC50 (converted))?
The LC50 was 66100 nM.

What about the GI50 ([7]; two leukemia cancer cell lines (RPMI-8226 and K-562), exposure at least 48 hrs, read-out: GI50, range over the panel) of the same compound?
Its GI50 is 1670 to 2040 nM.

What about the GI50 (Renal cancer cell lines; Renal panel, log of concentration in mol/L causing 50% inhibition of net cell growth, read-out: mean graph midpoint (MG_MID) of Log10 GI50 (converted)) of the same compound?
Its GI50 is 2400 nM.

What about the LC50 (Renal cancer cell lines; Renal panel, log of concentration leading to 50% net cell death, read-out: mean graph midpoint (MG_MID) of Log10 LC50 (converted)) of the same compound?
The LC50 was 34700 nM.

And the GI50 (Renal cancer cell lines; eight renal cancer cell lines, exposure at least 48 hrs, read-out: GI50, range over the panel)?
Its GI50 is 1350 to 5290 nM.

What about the GI50 ([8]; Non-small cell lung panel, log of concentration in mol/L causing 50% inhibition of net cell growth, read-out: mean graph midpoint (MG_MID) of Log10 GI50 (converted)) of the same compound?
Its GI50 is 2570 nM.

And the LC50 ([8]; Non-small cell lung panel, log of concentration leading to 50% net cell death, read-out: mean graph midpoint (MG_MID) of Log10 LC50 (converted))?
The LC50 was 41700 nM.

What about the GI50 ([8]; nine non-small cell lung cancer cell lines, exposure at least 48 hrs, read-out: GI50, range over the panel) of the same compound?
The GI50 was 1480 to 3900 nM.

And the “mean graph midpoint (MG_MID) of Log10 LC50” value (Colon cancer cell lines; Colon panel, log of concentration leading to 50% net cell death)?
The value was 4.68.

And the GI50 (Colon cancer cell lines; Colon panel, log of concentration in mol/L causing 50% inhibition of net cell growth, read-out: mean graph midpoint (MG_MID) of Log10 GI50 (converted))?
The GI50 was 2140 nM.

And the GI50 (Colon cancer cell lines; seven colon cancer cell lines, exposure at least 48 hrs, read-out: GI50, range over the panel)?
Its GI50 is 1400 to 3770 nM.
